Like-named read-outs stand apart in the source and are kept apart here.
Tests used:
[1] = system: E. feacalis; assay: Minimum inhibitory concentration (MIC) in vitro, agar dilution method; assay type: cell-based; settings: hydrate
Method in brief: (§1)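 Agar dilution MIC per CLSI/NCCLS method against clinical isolates collected in Sichuan and Beijing, 2007-2008. Compounds dissolved in DMSO, diluted in sterile water; vancomycin and linezolid as controls. Per-strain MICs reported alongside MIC50, MIC90 and MIC range.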

[2] = system: S. epidermidis MSSE; assay: as above; assay type: cell-based
Method in brief: as §1

[3] = system: Staphylococcus aureus MRSA; assay: as above; assay type: cell-based
Method in brief: as §1

[4] = system: Staphylococcus aureus MSSA; assay: as above; assay type: cell-based
Method in brief: as §1

[5] = system: E. feacium; assay: as above; assay type: cell-based
Method in brief: as §1

[6] = system: S. epidermidis MRSE; assay: as above; assay type: cell-based; settings: hydrate
Method in brief: as §1

[7] = system: Staphylococcus aureus; assay: Minimum inhibitory concentration (MIC) in vitro, agar dilution method, quality control strain; assay type: cell-based; settings: strain S. AT C C25923 (Table 7 No. 1); hydrate
Method in brief: as §1

[8] = Solubility in different solvents according to Chinese Pharmacopeia (2005 edition); assay type: physicochemical; settings: for Result: at the given solute:solvent ratio
Experimental: The solubility of the (S)—[N-3-(3′-fluoro-4′-(4″-phenylpiperazinyl))phenyl-2-oxo-5-oxazolelidinyl]methylacetamide hydrates was tested with different solvents, and the test results are shown in Tables 15-19. The solubility was measured according to Chinese Pharmacopeia (2005 edition).

[9] = E. feacalis (5 strains), clinically isolated
[10] = S. ep MSSE (10 strains), clinically isolated, hydrate
[11] = S. MRSA (10 strains), clinically isolated, hydrate
[12] = S. MSSA (11 strains), clinically isolated, hydrate
[13] = E. feacium (5 strains), clinically isolated, hydrate
[14] = S. ep MRSE (10 strains), clinically isolated

Q: With `CC(=O)NC[C@H]1CN(c2ccc(N3CCN(c4ccccc4)CC3)c(F)c2)C(=O)O1` [½ hydrate, (S)—[N-3-(3′-fluoro-4′-(4″-phenylpiperazinyl))phenyl-2-oxo-5-oxazolidinyl]methyl acetamide 1/2 hydrate] as the compound, how does the MIC50 [1, 9] read?
A: 0.125 µg/mL

Q: What about the MIC90 [1, 9] of the same compound?
A: 0.25 µg/mL

Q: And the MICrange [1, 9]?
A: 0.06 to 0.25 µg/mL

Q: And the MIC ([1]; strain Efa 54 (Table 8 No. 20))?
A: 0.06 µg/mL

Q: And the MIC ([1]; strain Efa 116 (Table 8 No. 16))?
A: 0.25 µg/mL

Q: And the MIC ([1]; strain Efa 3006 (Table 8 No. 18))?
A: 0.06 µg/mL

Q: And the MIC ([1]; strain Efa 33748 (Table 8 No. 17))?
A: 0.25 µg/mL

Q: And the MIC90 [2, 10]?
A: 0.25 µg/mL

Q: What about the MICrange [2, 10] of the same compound?
A: 0.06 to 0.25 µg/mL

Q: And the MIC50 ([2]; Staphylococcus epidermidis, S. ep MSSE (10 strains), clinically isolated, read-out: MIC50)?
A: 0.25 µg/mL

Q: What about the MIC ([2]; Staphylococcus epidermidis, strain S. ep MSSE113 (Table 7 No. 24), read-out: MIC) of the same compound?
A: 0.25 µg/mL

Q: What about the MIC ([2]; Staphylococcus epidermidis, strain S. ep MSSE118 (Table 8 No. 2), read-out: MIC) of the same compound?
A: 0.25 µg/mL

Q: And the MIC ([2]; Staphylococcus epidermidis, strain S. ep MSSE140 (Table 8 No. 3), read-out: MIC)?
A: 0.25 µg/mL

Q: And the MIC ([2]; strain S. ep MSSE87 (Table 7 No. 23), hydrate)?
A: 0.06 µg/mL

Q: What about the MIC ([2]; strain S. ep MSSE88 (Table 8 No. 5), hydrate) of the same compound?
A: 0.25 µg/mL

Q: What about the MIC ([2]; strain S. ep MSSE116 (Table 7 No. 25), hydrate) of the same compound?
A: 0.25 µg/mL

Q: What about the MIC ([2]; strain S. ep MSSE119 (Table 7 No. 27), hydrate) of the same compound?
A: 0.25 µg/mL

Q: And the MIC ([2]; strain S. ep MSSE137 (Table 8 No. 4), hydrate)?
A: 0.25 µg/mL

Q: And the MIC ([2]; strain S. ep MSSE142 (Table 7 No. 26), hydrate)?
A: 0.125 µg/mL

Q: And the MIC ([2]; strain S. ep MSSE153 (Table 8 No. 1), hydrate)?
A: 0.25 µg/mL

Q: What about the MIC50 [3, 11] of the same compound?
A: 0.25 µg/mL

Q: What about the MIC90 [3, 11] of the same compound?
A: 0.25 µg/mL

Q: And the MICrange [3, 11]?
A: 0.25 to 0.5 µg/mL

Q: And the MIC ([3]; Staphylococcus aureus, MRSA, strain S. MRSA 101 (Table 7 No. 14), read-out: MIC)?
A: 0.5 µg/mL

Q: And the MIC ([3]; Staphylococcus aureus, MRSA, strain S. MRSA 201 (Table 7 No. 13), read-out: MIC)?
A: 0.5 µg/mL

Q: And the MIC ([3]; Staphylococcus aureus, MRSA, strain S. MRSA B27 (Table 7 No. 21), read-out: MIC)?
A: 0.25 µg/mL

Q: What about the MIC ([3]; strain S. MRSA 29 (Table 7 No. 15), hydrate) of the same compound?
A: 0.25 µg/mL

Q: And the MIC ([3]; strain S. MRSA B105 (Table 7 No. 17), hydrate)?
A: 0.25 µg/mL

Q: What about the MIC ([3]; strain S. MRSA B143 (Table 7 No. 19), hydrate) of the same compound?
A: 0.25 µg/mL

Q: What about the MIC ([3]; strain S. MRSA B151 (Table 7 No. 20), hydrate) of the same compound?
A: 0.25 µg/mL

Q: And the MIC ([3]; strain S. MRSA B164 (Table 7 No. 16), hydrate)?
A: 0.25 µg/mL

Q: What about the MIC ([3]; strain S. MRSA B199 (Table 7 No. 22), hydrate) of the same compound?
A: 0.25 µg/mL

Q: And the MIC ([3]; strain S. MRSA B617 (Table 7 No. 18), hydrate)?
A: 0.25 µg/mL

Q: What about the MIC50 [4, 12] of the same compound?
A: 0.25 µg/mL

Q: What about the MIC90 [4, 12] of the same compound?
A: 0.25 µg/mL

Q: And the MICrange [4, 12]?
A: 0.25 to 0.5 µg/mL

Q: And the MIC ([4]; Staphylococcus aureus, MSSA, strain S. MSSA 195 (Table 7 No. 6), read-out: MIC)?
A: 0.5 µg/mL

Q: And the MIC ([4]; Staphylococcus aureus, MSSA, strain S. MSSA 201 (Table 7 No. 11), read-out: MIC)?
A: 0.25 µg/mL

Q: And the MIC ([4]; Staphylococcus aureus, MSSA, strain S. MSSA 466 (Table 7 No. 8), read-out: MIC)?
A: 0.25 µg/mL

Q: What about the MIC ([4]; Staphylococcus aureus, MSSA, strain S. MSSA 519 (Table 7 No. 9), read-out: MIC) of the same compound?
A: 0.5 µg/mL

Q: And the MIC ([4]; strain S. MSSA 123 (Table 7 No. 3), hydrate)?
A: 0.25 µg/mL

Q: And the MIC ([4]; strain S. MSSA 187 (Table 7 No. 7), hydrate)?
A: 0.25 µg/mL

Q: And the MIC ([4]; strain S. MSSA 195 (Table 7 No. 12), hydrate)?
A: 0.25 µg/mL

Q: And the MIC ([4]; strain S. MSSA 232 (Table 7 No. 2), hydrate)?
A: 0.25 µg/mL

Q: What about the MIC ([4]; strain S. MSSA 275 (Table 7 No. 10), hydrate) of the same compound?
A: 0.25 µg/mL

Q: What about the MIC ([4]; strain S. MSSA 520 (Table 7 No. 4), hydrate) of the same compound?
A: 0.25 µg/mL

Q: And the MIC ([4]; strain S. MSSA 580 (Table 7 No. 5), hydrate)?
A: 0.25 µg/mL

Q: And the MIC50 [5, 13]?
A: 0.5 µg/mL

Q: And the MIC90 [5, 13]?
A: 1 µg/mL

Q: What about the MICrange [5, 13] of the same compound?
A: 0.25 to 1 µg/mL

Q: And the MIC ([5]; strain Efm 98 (Table 8 No. 21), hydrate)?
A: 0.25 µg/mL

Q: What about the MIC ([5]; strain Efm 171 (Table 8 No. 25), hydrate) of the same compound?
A: 0.25 µg/mL

Q: What about the MIC ([5]; strain Efm 197 (Table 8 No. 22)) of the same compound?
A: 0.5 µg/mL

Q: And the MIC ([5]; strain Efm N3 (Table 8 No. 23), hydrate)?
A: 0.5 µg/mL

Q: What about the MIC ([5]; strain Efm N4 (Table 8 No. 24), hydrate) of the same compound?
A: 1 µg/mL

Q: And the MIC50 [6, 14]?
A: 0.25 µg/mL

Q: What about the MIC90 [6, 14] of the same compound?
A: 0.25 µg/mL

Q: And the MICrange [6, 14]?
A: 0.25 µg/mL

Q: And the MIC ([6]; strain S. ep MRSE4 (Table 8 No. 9))?
A: 0.25 µg/mL

Q: And the MIC ([6]; strain S. ep MRSE20 (Table 8 No. 6))?
A: 0.25 µg/mL

Q: And the MIC ([6]; strain S. ep MRSE87 (Table 8 No. 13))?
A: 0.25 µg/mL

Q: And the MIC ([6]; strain S. ep MRSE90 (Table 8 No. 10))?
A: 0.25 µg/mL

Q: And the MIC ([6]; strain S. ep MRSE101 (Table 8 No. 7))?
A: 0.25 µg/mL

Q: And the MIC ([6]; strain S. ep MRSE105 (Table 8 No. 11))?
A: 0.25 µg/mL

Q: And the MIC ([6]; strain S. ep MRSE140 (Table 8 No. 14))?
A: 0.25 µg/mL

Q: And the MIC ([6]; strain S. ep MRSE142 (Table 8 No. 12))?
A: 0.25 µg/mL

Q: What about the MIC ([6]; strain S. ep MRSE210 (Table 8 No. 15)) of the same compound?
A: 0.25 µg/mL

Q: And the MIC ([6]; strain S. ep MRSE211 (Table 8 No. 8))?
A: 0.25 µg/mL

Q: What about the MIC [7] of the same compound?
A: 0.25 µg/mL

Q: And the “Solubility compared with the anhydride” value ([8]; different solvents)?
A: sometimes more soluble than the anhydride

Q: And the Result ([8]; solvent 0.1N Hydrochloric acid)?
A: Dissolved

Q: What about the Result ([8]; solvent 0.1N Sodium hydroxide) of the same compound?
A: Insoluble

Q: What about the Result ([8]; solvent Acetonitrile) of the same compound?
A: Dissolved

Q: And the Result ([8]; solvent Ethanol)?
A: Dissolved

Q: And the Result ([8]; solvent Methanol)?
A: Dissolved

Q: What about the Result ([8]; solvent Water, hydrate) of the same compound?
A: Dissolved

— patent US8916567B2, “Certain crystalline hydrates, pharmaceutical compositions thereof and methods for preparation and use thereof” (Universal Technology Alliance, Inc., priority 2009, dated 2014)
